Measurements taken from patent US20250121084A1, “ANTI-CLAUDIN-6 CONJUGATES” (priority 2023, published 2025).
Starred links: 1 amine or outer side, 2 acyl side, 3 side chain; linkers in the order of their positions; H or OH if unused. Non-standard residues stand in square brackets, D forms with d. Residues, ends and D or L forms follow the SMILES beside them. *: point of attachment. Exatecan = CC[C@@]1(O)C(=O)OCc2c1cc1n(c2=O)Cc2c-1nc1cc(F)c(C)c3c1c2[C@@H](N*)CC3; Propanoyl(3-maleimido) = O=C1C=CC(=O)N1CCC(=O)*; PABC = O=C(OCc1ccc(N[*:1])cc1)[*:2]

How the values were obtained:
a variety of cell lines = conditions: versus SN38; cited from earlier work
topo I/DNA complex = target: T1, topo I/DNA complex (Homo sapiens, UniProt P11387); conditions: versus SN38 (the active metabolite of irinotecan); cited from earlier work
T1 sequence (P11387 1-765): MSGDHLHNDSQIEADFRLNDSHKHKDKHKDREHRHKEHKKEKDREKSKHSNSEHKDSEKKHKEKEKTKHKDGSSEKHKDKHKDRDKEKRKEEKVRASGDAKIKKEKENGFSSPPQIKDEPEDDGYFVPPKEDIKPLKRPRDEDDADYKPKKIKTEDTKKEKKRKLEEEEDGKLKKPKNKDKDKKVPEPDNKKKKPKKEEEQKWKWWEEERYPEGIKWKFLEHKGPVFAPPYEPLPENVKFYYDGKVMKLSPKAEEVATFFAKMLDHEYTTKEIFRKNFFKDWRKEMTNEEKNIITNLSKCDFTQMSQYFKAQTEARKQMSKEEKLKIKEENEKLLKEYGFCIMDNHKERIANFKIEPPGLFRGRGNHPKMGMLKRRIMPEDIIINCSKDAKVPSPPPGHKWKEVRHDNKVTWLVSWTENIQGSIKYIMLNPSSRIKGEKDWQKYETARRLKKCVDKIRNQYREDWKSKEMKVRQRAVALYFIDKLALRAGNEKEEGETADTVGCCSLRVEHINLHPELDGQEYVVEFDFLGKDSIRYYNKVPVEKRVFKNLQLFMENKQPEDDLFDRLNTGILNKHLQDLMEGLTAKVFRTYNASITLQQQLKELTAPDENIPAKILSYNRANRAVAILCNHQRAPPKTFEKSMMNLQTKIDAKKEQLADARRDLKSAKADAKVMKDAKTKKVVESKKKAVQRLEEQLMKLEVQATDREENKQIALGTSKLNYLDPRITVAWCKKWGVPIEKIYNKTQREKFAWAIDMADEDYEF

[1] = Aggregation during conjugation to a test antibody (% monomer by SEC); assay type: physicochemical
Protocol: 2 mg of monoclonal antibody GB01 at 8.87 mg/ml was pH adjusted with 5% 0.5 M Tris, 0.025 M EDTA, pH 8.5 and reduced with 2.3 mol. eq. TCEP and then conjugated with 6 mol. eq. drug linker. After buffer exchange into 30 mM Histidine, 175 mM Sucrose pH 6.0/PBS, the drug to antibody ratio (DAR) was by HIC/LC-MS and % Monomer by size exclusion chromatography (SEC). Percentage monomer values of 95% or greater are assessed as low aggregation.
Aggregation levels were assessed during the conjugation to a test antibody. Conjugation was performed as described above for ADC1.
During conjugation, we are ideally targeting a monomer content or percentage monomer of 95% or above. Low percentage monomer values usually translate to a higher degree of aggregation. One could therefore agree that percentage monomer values of 95% or higher mean very low levels of aggregation or none, whereas values below this threshold often translate to higher levels of aggregation.

[2] = RP-HPLC retention time correlated with hydrophobicity; assay type: physicochemical; conditions: high Rt = hydrophobic, low Rt = hydrophilic
Protocol: A correlation study was also carried out using Reverse-Phase HPLC (RP-HPLC). The two constructs were injected in RP-HPLC and retention times (Rt) correlated with hydrophobicity—i.e., high Rt was associated to hydrophobic constructs whereas low Rt to hydrophilic ones.

Compound: CC[C@@]1(O)C(=O)OCc2c1cc1n(c2=O)Cc2c-1nc1cc(F)c(C)c3c1c2[C@@H](N)CC3 [Exatecan]
- potency relative to SN38 as a cytotoxin (a variety of cell lines): about 2.5 fold
- potency relative to SN38 at stabilizing the topo I/DNA complex (topo I/DNA complex): about 2.5 fold

Compound: CC[C@@]1(O)C(=O)OCc2c1cc1n(c2=O)Cc2c-1nc1cc(F)c(C)c3c1c2[C@@H](NC(=O)OCc1ccc(NC(=O)[C@H](C)NC(=O)[C@@H](NC(=O)CNC(=O)CNC(=O)CNC(=O)CNC(=O)CNC(=O)CCN2C(=O)C=CC2=O)C(C)C)cc1)CC3 [Mal-Gly5-VA-PABC-Exatecan] ({Propanoyl(3-maleimido)}-GGGGGVA[PABC]-Exatecan)
- Aggregation [1]: None
- Aggregation (% monomer) ([1]; 95% or greater = low aggregation): 98%
- Rt [2]: 9.76 min
